According to BigSolDB 2.1:

CS(=O)(=O)c1ccc(F)cc1
Conditions | solubility (mole fraction)
in acetone, 290.53 K | 0.226
in acetone, 298.3 K | 0.282
in acetone, 304.2 K | 0.331
in chloroform, 288.4 K | 0.229
in chloroform, 293.25 K | 0.262
in chloroform, 299.93 K | 0.312
in chloroform, 305 K | 0.352
in ethanol, 291.07 K | 0.0162
in ethanol, 297.34 K | 0.0302
in ethanol, 303.07 K | 0.0471
in ethanol, 308.66 K | 0.0744
in ethyl acetate, 293.28 K | 0.189
in ethyl acetate, 299.67 K | 0.23
in ethyl acetate, 305.75 K | 0.278
in ethyl acetate, 313.05 K | 0.35
in toluene, 290.84 K | 0.0422
in toluene, 298.86 K | 0.0744
in toluene, 304.15 K | 0.105
in toluene, 306.87 K | 0.125
